This is an account of results in patent US20120225862A1, “HETEROARYL BENZAMIDES, COMPOSITIONS AND METHODS OF USE” (AUCKLAND UNIVSERVICES LIMITED, priority 2009, published 2012).

Molecules are shown by their SMILES.

One test deals with p53. The test is described as follows: DNA damage response (Western blot p53, phospho-p53). It is filed as cell-based, human. The settings on record: RCC4 and RCC4/VHL, 1.25, 2.5 and 5 μM. The procedure:
(A) Clonogenic survival of RCC4 and RCC4/VHL treated with […] (5 μM)(*p<0.05). All error bars represent the standard error of the mean. […] RCC4 and RCC4/VHL cells were treated with increasing concentrations of compound 47 (1.25, 2.5 and 5 μM), a negative control (DMSO) and a positive control (4-(pyridin-4-yl)-N-(m-tolyl)thiazol-2-amine). Cells were lysed and probed for LC3, a marker of autophagy, or α-tubulin (loading control). […] RCC4 and RCC4/VHL cells were treated with vehicle, increasing concentrations of compound 47, and camptothecin. Cells were stained with DAPI and nuclear condensation was examined by fluorescence microscopy. (D) RCC4 cells were treated with compound 47 (5 μM) for the indicated time and stained with Annexin V and propidium iodide and subjected to FACS analysis. […] RCC4 and RCC4/VHL cells were subjected to increasing concentrations of compound 47 (1.25, 2.5, and 5 μM), a negative control (DMSO), and a positive control (doxorubicin). Cells were lysed and subjected to Western blot with the indicated antibodies.
However, RCC cells without VHL undergo a necrotic cell death in response to compound 47 as measured by the ability of the cells to exclude trypan blue, an indicator of cell membrane integrity.
On the technique in general: In western blotting, separated proteins are transferred to a membrane and probed.

For the next test, the system named is 786-O. The test can be described thus: 3H-2-deoxyglucose uptake, 786-O. The following applies: 5 μM, FIG. 8B. The format is cell-based, human. The procedure: One hundred thousand cells were plated into 6-well plates. The following day, the cells were treated with vehicle or drug and incubated for the indicated time. Cells were washed twice in phosphate buffered saline and low glucose media was added for 30 minutes. Cells were then incubated with 0.5 microCi of tritiated-2-deoxyglucose and incubated for an hour at 37° C. Cells were washed twice in PBS and then lysed in 0.2 N NaOH and 0.2% SDS. Lysates were transferred to scintillation tubes with scintillation fluid and quantified by scintillation counter.
One hundred thousand cells were plated per well in a six-well plate. The next day, cells were treated with the indicated concentration of drug and incubated for the indicated time. Cells were then washed twice with phosphate-buffered saline, incubated in low-glucose medium for 30 minutes, and ^3H-2-deoxyglucose (0.5 μCi) was added in 1 ml of glucose-free media for an additional hour. Cells were washed twice in PBS and lysed (0.2 N NaOH and 0.2% sodium dodecyl sulfate). Glucose uptake was quantified with a scintillation counter.

In a further test the target is T1, CDK1/cyclinB (Homo sapiens, UniProt P06493).
T1 construct: purchased Millipore (KinaseProfiler service)
The test can be described thus: In vitro kinase activity (Millipore KinaseProfiler): CDK1/cyclinB. The following applies: no head or unit printed. The format is biochemical. The procedure:
(§1) All cells were grown in DMEM+10% FCS. ACHN and ACHN shVHL were a kind gift from George V. Thomas (UCLA). HIF overexpressing clones were described previously. Transfection of RNA oligos were performed with DnarmaFECT Reagent 1 (Dharmcon), according to manufacturer's directions. ON-TARGETplus SMART pools against HIF-1β/ARNT were purchased from Dharmacon. Glut1 was detected with anti-GLUT1 antibody from NeoMarkers/LabVision/Fisher. Pyruvate/lactate levels and hexokinase activity were both measured by fluorometric assay (BioVision and Sigma-Aldrich, respectively). ATP levels were measured by bioluminescence assay (ATP Determination Kit from Molecular Probes/Invitrogen). In vitro kinase activities were performed by Millipore KinaseProfiler. Affi-Gel 10 (BioRad) activated affinity media was coupled to analogs to generate immobilized affinity linkers.
(§2) We next wanted to investigate the differential glucose uptake between RCCs with and without VHL treated with compound 47 that subsequently lead to the selective death of VHL-deficient cells. We first examined the message levels of the two main glucose transporters, GLUT1 and GLUT2 by quantitative real-time PCR. GLUT1 is an inducible, high-affinity glucose transporter, while GLUT2 is the glucose transporter responsible for basal glucose uptake. […] Cells deficient in VHL had very low levels of GLUT2 that could barely be detected (FIG. 3J). […]

Another test has as its target T2, CHK1 (Homo sapiens, UniProt O14757).
T2 construct: purchased Millipore (KinaseProfiler service)
The test is described as follows: In vitro kinase activity (Millipore KinaseProfiler): CHK1. The following applies: no head or unit printed. The format is biochemical. The procedure: as §1, §2

A further test deals with T3, EphA1 (Homo sapiens, UniProt P21709).
T3 construct: purchased Millipore (KinaseProfiler service)
The test can be described thus: In vitro kinase activity (Millipore KinaseProfiler): EphA1. The format is biochemical. The settings on record: no head or unit printed. The method, then:
as §1, §2

For another test, the target named is T4, FGFR1 (Homo sapiens, UniProt P11362).
T4 construct: purchased Millipore (KinaseProfiler service)
The test is described as follows: In vitro kinase activity (Millipore KinaseProfiler): FGFR1. It is filed as biochemical. The settings on record: no head or unit printed. The procedure: as §1, §2

The target of a further test is T5, Flt3 (Homo sapiens, UniProt P36888).
T5 construct: purchased Millipore (KinaseProfiler service)
The test can be described thus: In vitro kinase activity (Millipore KinaseProfiler): Flt3. It is filed as biochemical. The settings on record: no head or unit printed. The method, then: as §1, §2

Another test has as its target T6, ROCK-I (Homo sapiens, UniProt Q13464).
T6 construct: purchased Millipore (KinaseProfiler service)
The test is described as follows: In vitro kinase activity (Millipore KinaseProfiler): ROCK-I. The format is biochemical. The settings on record: no head or unit printed. The method, then:
as §1, §2

The target in another test is T7, SAPK2a (Homo sapiens, UniProt Q16539).
T7 construct: purchased Millipore (KinaseProfiler service)
The test can be described thus: In vitro kinase activity (Millipore KinaseProfiler): SAPK2a. It is filed as biochemical. The following applies: no head or unit printed. The method, then: as §1, §2

The next test deals with T8, Syk (Homo sapiens, UniProt P43405).
T8 construct: purchased Millipore (KinaseProfiler service)
The test is described as follows: In vitro kinase activity (Millipore KinaseProfiler): Syk. The format is biochemical. The following applies: no head or unit printed. The method, then:
as §1, §2

T1 sequence (P06493 whole entry, species assumed): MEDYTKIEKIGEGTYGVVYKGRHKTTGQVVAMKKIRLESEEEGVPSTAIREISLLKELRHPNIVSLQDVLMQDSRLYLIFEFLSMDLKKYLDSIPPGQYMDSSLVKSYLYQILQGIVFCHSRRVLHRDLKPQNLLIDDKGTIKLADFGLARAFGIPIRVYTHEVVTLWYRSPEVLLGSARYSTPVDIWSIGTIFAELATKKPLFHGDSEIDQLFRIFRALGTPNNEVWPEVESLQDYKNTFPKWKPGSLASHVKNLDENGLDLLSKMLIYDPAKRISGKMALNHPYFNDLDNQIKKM
T1 sequence (P14635 whole entry partner, species assumed): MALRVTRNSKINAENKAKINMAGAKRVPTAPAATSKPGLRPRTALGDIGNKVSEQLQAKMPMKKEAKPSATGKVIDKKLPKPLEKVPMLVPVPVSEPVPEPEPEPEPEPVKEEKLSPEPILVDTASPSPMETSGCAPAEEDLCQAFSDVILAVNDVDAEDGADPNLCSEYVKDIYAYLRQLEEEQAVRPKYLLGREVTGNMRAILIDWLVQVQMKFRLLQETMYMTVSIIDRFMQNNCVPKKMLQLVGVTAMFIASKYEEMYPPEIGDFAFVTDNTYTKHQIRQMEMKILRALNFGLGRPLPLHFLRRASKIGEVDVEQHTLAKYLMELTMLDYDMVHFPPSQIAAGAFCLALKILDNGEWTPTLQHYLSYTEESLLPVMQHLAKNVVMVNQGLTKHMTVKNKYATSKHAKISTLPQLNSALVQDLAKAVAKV
T7 sequence (Q16539 whole entry): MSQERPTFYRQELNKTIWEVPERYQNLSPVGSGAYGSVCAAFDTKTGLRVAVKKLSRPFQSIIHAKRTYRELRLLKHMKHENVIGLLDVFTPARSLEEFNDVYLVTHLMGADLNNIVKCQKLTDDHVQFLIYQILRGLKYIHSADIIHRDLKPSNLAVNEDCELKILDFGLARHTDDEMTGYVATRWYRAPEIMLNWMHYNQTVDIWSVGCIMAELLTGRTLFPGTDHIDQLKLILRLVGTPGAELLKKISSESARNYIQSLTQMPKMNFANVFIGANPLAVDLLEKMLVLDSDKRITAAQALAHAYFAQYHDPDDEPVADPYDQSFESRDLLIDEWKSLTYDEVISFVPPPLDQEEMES
T2 sequence (O14757 whole entry, species assumed): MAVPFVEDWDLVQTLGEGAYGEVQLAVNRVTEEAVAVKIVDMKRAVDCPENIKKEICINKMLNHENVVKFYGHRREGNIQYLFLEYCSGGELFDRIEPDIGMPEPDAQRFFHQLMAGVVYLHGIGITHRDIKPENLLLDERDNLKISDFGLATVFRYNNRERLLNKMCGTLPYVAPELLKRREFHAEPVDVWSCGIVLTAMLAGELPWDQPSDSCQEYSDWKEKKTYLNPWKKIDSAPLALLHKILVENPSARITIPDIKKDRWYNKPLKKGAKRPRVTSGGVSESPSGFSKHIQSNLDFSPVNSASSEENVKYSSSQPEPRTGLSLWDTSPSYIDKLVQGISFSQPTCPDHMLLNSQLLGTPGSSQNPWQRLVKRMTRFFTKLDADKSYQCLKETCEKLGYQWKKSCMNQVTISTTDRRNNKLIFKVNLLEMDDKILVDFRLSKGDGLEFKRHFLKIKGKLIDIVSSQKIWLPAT
T3 sequence (P21709 26-976, species assumed): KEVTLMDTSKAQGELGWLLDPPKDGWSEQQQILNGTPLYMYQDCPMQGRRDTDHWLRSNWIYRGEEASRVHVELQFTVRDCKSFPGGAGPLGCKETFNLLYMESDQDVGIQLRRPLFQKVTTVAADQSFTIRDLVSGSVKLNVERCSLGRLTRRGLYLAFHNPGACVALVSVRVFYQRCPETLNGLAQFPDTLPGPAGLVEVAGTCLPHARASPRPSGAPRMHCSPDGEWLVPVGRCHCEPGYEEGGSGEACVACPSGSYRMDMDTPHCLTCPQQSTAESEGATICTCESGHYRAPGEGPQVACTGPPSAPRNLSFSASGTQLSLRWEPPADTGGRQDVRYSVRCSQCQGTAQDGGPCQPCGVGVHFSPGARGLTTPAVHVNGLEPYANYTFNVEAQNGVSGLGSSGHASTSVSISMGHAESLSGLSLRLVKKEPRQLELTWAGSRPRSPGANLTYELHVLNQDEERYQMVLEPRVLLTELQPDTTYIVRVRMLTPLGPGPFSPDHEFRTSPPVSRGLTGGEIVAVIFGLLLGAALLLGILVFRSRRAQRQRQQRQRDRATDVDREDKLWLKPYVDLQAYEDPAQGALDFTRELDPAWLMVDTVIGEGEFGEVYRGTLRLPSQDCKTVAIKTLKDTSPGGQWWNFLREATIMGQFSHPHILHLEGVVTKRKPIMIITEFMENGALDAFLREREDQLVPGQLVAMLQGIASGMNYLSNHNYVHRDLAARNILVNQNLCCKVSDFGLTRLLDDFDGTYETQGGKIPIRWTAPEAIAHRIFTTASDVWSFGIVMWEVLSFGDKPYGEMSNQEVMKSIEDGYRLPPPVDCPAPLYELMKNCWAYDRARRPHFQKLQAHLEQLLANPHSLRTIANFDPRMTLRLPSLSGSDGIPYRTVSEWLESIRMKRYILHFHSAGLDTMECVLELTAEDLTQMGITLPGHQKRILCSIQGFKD
T5 sequence (P36888 27-993, species assumed): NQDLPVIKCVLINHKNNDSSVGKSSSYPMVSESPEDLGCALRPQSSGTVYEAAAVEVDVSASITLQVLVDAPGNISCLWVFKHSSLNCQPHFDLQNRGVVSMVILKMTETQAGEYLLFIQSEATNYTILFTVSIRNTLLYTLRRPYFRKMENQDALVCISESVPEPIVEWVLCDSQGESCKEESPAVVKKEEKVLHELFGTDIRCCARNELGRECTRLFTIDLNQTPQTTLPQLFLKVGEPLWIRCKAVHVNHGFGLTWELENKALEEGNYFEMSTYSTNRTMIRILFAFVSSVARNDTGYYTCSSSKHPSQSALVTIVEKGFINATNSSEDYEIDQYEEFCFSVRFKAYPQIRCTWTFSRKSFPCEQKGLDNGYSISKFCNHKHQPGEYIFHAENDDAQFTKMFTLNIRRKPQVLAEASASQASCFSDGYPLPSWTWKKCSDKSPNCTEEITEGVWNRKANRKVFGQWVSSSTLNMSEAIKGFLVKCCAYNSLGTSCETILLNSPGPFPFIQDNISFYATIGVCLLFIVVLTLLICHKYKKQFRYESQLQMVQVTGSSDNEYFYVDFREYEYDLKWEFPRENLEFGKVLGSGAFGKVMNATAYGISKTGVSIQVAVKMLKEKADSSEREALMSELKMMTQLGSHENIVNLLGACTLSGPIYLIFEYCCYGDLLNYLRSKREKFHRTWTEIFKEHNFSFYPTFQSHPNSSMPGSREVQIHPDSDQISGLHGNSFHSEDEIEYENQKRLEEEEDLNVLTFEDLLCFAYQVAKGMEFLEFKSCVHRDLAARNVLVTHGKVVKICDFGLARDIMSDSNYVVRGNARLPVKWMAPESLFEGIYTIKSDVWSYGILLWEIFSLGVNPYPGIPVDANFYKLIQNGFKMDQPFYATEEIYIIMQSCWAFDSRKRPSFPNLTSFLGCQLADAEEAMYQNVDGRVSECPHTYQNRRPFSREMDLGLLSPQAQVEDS
T6 sequence (Q13464 whole entry, species assumed): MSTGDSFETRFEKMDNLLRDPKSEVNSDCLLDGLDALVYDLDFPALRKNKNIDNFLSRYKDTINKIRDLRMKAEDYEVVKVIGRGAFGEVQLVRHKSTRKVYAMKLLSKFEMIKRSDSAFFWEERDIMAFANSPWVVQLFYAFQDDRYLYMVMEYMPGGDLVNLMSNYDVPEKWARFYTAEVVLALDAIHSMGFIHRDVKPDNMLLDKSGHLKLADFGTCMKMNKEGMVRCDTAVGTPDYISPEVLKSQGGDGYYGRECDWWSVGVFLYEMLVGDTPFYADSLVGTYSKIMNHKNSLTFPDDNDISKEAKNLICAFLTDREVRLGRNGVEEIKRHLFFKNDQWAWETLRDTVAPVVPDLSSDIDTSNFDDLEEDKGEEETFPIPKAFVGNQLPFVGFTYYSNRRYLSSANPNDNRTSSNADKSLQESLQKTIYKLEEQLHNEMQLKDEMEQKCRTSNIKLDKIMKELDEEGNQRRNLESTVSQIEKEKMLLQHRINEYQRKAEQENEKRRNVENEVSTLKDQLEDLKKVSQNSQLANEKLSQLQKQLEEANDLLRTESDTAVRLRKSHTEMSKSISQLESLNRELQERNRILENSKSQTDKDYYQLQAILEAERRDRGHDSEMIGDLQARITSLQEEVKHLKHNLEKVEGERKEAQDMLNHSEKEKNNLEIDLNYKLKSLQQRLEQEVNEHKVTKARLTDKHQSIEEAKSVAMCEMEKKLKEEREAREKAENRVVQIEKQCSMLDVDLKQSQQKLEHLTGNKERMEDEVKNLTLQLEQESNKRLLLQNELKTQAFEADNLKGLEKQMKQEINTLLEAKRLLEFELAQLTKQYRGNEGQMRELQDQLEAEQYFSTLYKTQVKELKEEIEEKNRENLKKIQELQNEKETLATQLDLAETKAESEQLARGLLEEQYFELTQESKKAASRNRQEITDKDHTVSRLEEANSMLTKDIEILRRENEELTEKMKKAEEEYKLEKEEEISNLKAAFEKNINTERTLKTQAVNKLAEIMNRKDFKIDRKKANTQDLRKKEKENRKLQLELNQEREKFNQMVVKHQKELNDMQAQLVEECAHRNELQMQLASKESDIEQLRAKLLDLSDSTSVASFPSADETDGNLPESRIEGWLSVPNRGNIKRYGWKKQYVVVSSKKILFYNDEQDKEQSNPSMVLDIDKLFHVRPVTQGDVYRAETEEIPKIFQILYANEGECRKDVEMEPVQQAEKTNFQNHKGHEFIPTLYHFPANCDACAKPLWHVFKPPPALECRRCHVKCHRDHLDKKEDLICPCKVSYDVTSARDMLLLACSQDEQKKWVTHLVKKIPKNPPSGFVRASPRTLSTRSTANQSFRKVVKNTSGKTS

For `CC(C)(C)c1ccc(S(=O)(=O)NCc2ccc(C(=O)Nc3cccnc3)cc2)cc1` [Example 38, 4-((4-tert-Butylphenylsulfonamido)methyl)-N-(pyridin-3-yl)benzamide], in the test on p53, the “total p53 or phospho-p53 levels (DNA damage response)” value is listed as “did not increase”. In the test with 786-O, the “glucose uptake in 786-O cells” value is “impaired glucose uptake”. At CDK1/cyclinB, this compound gave a CDK1/cyclinB kinase activity of 96. The compound further showed a CHK1 kinase activity on CHK1 of 114. Further, at EphA1, the EphA1 kinase activity stood at 102. Moreover, the FGFR1 kinase activity on FGFR1 was 107%. For the same compound, the Flt3 kinase activity at Flt3 stood at 111%. Moreover, the ROCK-I kinase activity at ROCK-I was found to be 74%. On SAPK2a, this compound had an SAPK2a kinase activity of 127. The same compound registered a Syk kinase activity on Syk of 94.
